Measured values: US10221163B2 (priority 2015, dated 2019)
Like-named read-outs stand apart in the source and are kept apart here.

Legend:
[1] = system: Serratia marcescens expressing IMP-1 (CL5741); format: cell-based; details: with imipenem 1 μg/ml; 95% inhibition of bacterial growth
How it was run: (§1)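 Clinical strains grown overnight on blood agar at 35°C, colonies suspended in saline, diluted 1:100 into 1.1×CAMHB. Test compound titrated with imipenem at 1 μg/ml; incubated 22–24 h at 35°C, growth read by absorbance.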

[2] = system: Klebsiella pneumoniae expressing VIM-1 (IHMA599644); format: cell-based; details: with imipenem 1 μg/ml; 95% inhibition of bacterial growth
How it was run: as §1

[3] = system: Escherichia coli expressing NDM-1 (CLB30005, CLB30016); format: cell-based; details: with imipenem 1 μg/ml; 95% inhibition of bacterial growth
How it was run: as §1

IMP-1 = IMP-1 (Serratia marcescens, UniProt P52699); assay: biochemical; format: biochemical; details: fluorescence assay, CCF2-FA substrate, 2 pM enzyme, 2 hours at 25° C.; read-out: IMP-1 IC50
How it was run: (§2)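 Two-hour, 25° C incubation of enzyme with inhibitor and CCF2-FA (7-hydroxycoumarin–cephalosporin–fluorescein). Fluorescence read-out; IC50 via 4-parameter fit.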

NDM-1 = NDM-1 (Klebsiella pneumoniae, UniProt C7C422); assay: biochemical; format: biochemical; details: fluorescence assay, CCF2-FA substrate, 1 pM enzyme, 2 hours at 25° C.; read-out: NDM-1 IC50
How it was run: as §2

VIM-1 = VIM-1 (Pseudomonas aeruginosa (strain ATCC 15692 / DSM 22644 / CIP 104116 / JCM 14847 / LMG 12228 / 1C / PRS 101 / PAO1), UniProt A0A0F7KYQ8); assay: biochemical; details: CCF2-FA substrate, 30 pM enzyme, 2 hours at 25° C.
How it was run: as §2

[4] = system: Pseudomonas aeruginosa MB9798 vs MB9799; details: ratio MITC95 PA_9798/MITC95 PA_9799
How it was run: (§3)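 Steps: add fixed imipenem and/or ceftazidime (usually CLSI breakpoint) and fixed AmpC-directed class A/C inhibitor to microbroth MIC wells; titrate MBL inhibitor; record concentration regaining susceptibility for each PAO1-derived strain; divide efflux+ by efflux− value.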

[5] = system: Pseudomonas aeruginosa efflux− (MB9799), IMP-1; format: cell-based; details: concentration restoring susceptibility to imipenem at 2 μg/mL in the presence of a class A, C, D serine β-lactamase inhibitor closely related to relebactam
How it was run: as §3

[6] = system: Pseudomonas aeruginosa efflux+ (MB9798), IMP-1; format: cell-based; details: concentration restoring susceptibility to imipenem at 2 μg/mL in the presence of a class A, C, D serine β-lactamase inhibitor closely related to relebactam
How it was run: as §3

[7] = fluorescence assay, read-out: VIM-1 IC50

Chain of NDM-1 (C7C422 whole entry, looked up, species assumed): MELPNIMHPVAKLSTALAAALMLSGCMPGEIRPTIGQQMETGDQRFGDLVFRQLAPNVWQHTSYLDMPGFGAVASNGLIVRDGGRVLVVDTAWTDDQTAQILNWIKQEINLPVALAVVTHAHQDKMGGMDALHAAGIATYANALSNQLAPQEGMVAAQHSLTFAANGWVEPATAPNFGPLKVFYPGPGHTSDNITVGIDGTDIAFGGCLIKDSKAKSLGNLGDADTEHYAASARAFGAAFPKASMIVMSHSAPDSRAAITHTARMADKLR
Chain of IMP-1 (P52699 whole entry, looked up, species assumed): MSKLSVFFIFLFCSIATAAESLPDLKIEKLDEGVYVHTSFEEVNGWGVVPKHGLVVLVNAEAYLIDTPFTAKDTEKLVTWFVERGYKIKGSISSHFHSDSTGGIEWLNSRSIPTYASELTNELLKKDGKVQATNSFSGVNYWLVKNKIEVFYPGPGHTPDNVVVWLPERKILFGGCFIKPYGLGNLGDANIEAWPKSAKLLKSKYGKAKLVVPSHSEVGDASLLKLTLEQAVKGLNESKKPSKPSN

Row | Compound | Serratia marcescens expressing IMP-1 (CL5741) MITC95 [1] | Klebsiella pneumoniae expressing VIM-1 (IHMA599644) MITC95 [2] | Escherichia coli expressing NDM-1 (CLB30016) MITC95 [3] | IC50 (IMP-1) | IC50 (NDM-1) | IC50 (VIM-1; [7]) | Efflux ratio [4] | P. aeruginosa expressing IMP-1, efflux − (MB9799) MITC95 [5] | P. aeruginosa expressing IMP-1, efflux + (MB9798) MITC95 [6] | IC50 (VIM-1; VIM-1 IC50, fluorescence assay)
1 | Nc1nc2c(-c3ccc(S(=O)(=O)NC[C@@H](N)CO)c(S(N)(=O)=O)c3-c3nn[nH]n3)cccc2[nH]1 [Example 190, 4-(2-amino-1H-benzo[d]imidazol-4-yl)-N1-((R)-2-amino-3-hydroxypropyl)-3-(2H-tetrazol-5-yl)benzene-1,2-disulfonamide] | 0.3906 µM | 0.7813 µM | 0.3906 µM | 624 pM | 59 pM | 281 pM | 0.50 | 0.7813 µM | 0.3906 µM | 
2 | Nc1nc2c(-c3ccc(S(=O)(=O)NC[C@H](N)CO)c(S(N)(=O)=O)c3-c3nn[nH]n3)cccc2[nH]1 [Example 191, 4-(2-amino-1H-benzo[d]imidazol-4-yl)-N^1—((S)-2-amino-3-hydroxypropyl)-3-(2H-tetrazol-5-yl)benzene-1,2-disulfonamide] | 0.8906 µM | 0.8906 µM | 0.25 µM | 433 pM | 46.9 pM | 173 pM | 1.00 | 0.4453 µM | 0.4453 µM | 
3 | NS(=O)(=O)c1c(S(=O)(=O)N[C@@H]2CCNC2)ccc(-c2cccc3[nH]cnc23)c1-c1nn[nH]n1 [Example 193, 4-(1H-benzo[d]imidazol-4-yl)-N1-((R)-pyrrolidin-3-yl)-3-(2H-tetrazol-5-yl)benzene-1,2-disulfonamide] | 1.563 µM | 2.344 µM | 1.563 µM | 211 pM | 39.2 pM | 113 pM | 1.00 | 0.7813 µM | 0.7813 µM | 
4 | Nc1ccc(-c2ccc(S(=O)(=O)N[C@@H]3CCNC3)c(S(N)(=O)=O)c2-c2nn[nH]n2)cn1 [Example 194, (R)-4-(6-aminopyridin-3-yl)-N^1-(pyrrolidin-3-yl)-3-(2H-tetrazol-5-yl)benzene-1,2-disulfonamide] | 0.5573 µM | 2.229 µM | 0.3203 µM | 242 pM | 105 pM | 124 pM | 0.80 | 0.8542 µM | 0.6875 µM | 
5 | Nc1ccc(-c2ccc(S(=O)(=O)N[C@H]3CCNC3)c(S(N)(=O)=O)c2-c2nn[nH]n2)cn1 [Example 195, (S)-4-(6-aminopyridin-3-yl)-N^1-(pyrrolidin-3-yl)-3-(2H-tetrazol-5-yl)benzene-1,2-disulfonamide] | 0.5859 µM | 1.563 µM | 0.5859 µM | 523 pM | 169 pM | 182 pM | 1.00 | 0.7813 µM | 0.7813 µM | 
6 | NCCNS(=O)(=O)c1ccc(-c2ccc(N)nc2)c(-c2nn[nH]n2)c1S(N)(=O)=O [Example 196, N^1-(2-aminoethyl)-4-(6-aminopyridin-3-yl)-3-(2H-tetrazol-5-yl)benzene-1,2-disulfonamide] | 0.2969 µM | 1.336 µM | 0.03125 µM | 480 pM | 328 pM | 218 pM | 1.00 | 0.7656 µM | 0.7656 µM | 
7 | NS(=O)(=O)c1c(S(=O)(=O)N[C@H]2CCNC2)ccc(-c2cccc3[nH]cnc23)c1-c1nn[nH]n1 [Example 197] | 1.172 µM | 3.125 µM | 2.344 µM | 395 pM | 76.4 pM | 145 pM | 1.00 | 0.7813 µM | 0.7813 µM | 
8 | NCCCNS(=O)(=O)c1ccc(-c2cccc3[nH]cnc23)c(-c2nn[nH]n2)c1S(N)(=O)=O [Example 198, N^1-(3-aminopropyl)-4-(1H-benzo[d]imidazol-4-yl)-3-(2H-tetrazol-5-yl)benzene-1,2-disulfonamide] | 1.172 µM | 2.344 µM | 1.172 µM | 293 pM | 59.2 pM | 135 pM | 1.00 | 0.7813 µM | 0.7813 µM | 
9 | NCCNS(=O)(=O)c1ccc(-c2cccc3[nH]cnc23)c(-c2nn[nH]n2)c1S(N)(=O)=O [Example 199, N^1-(2-aminoethyl)-4-(1H-benzo[d]imidazol-4-yl)-3-(2H-tetrazol-5-yl)benzene-1,2-disulfonamide] | 1.042 µM | 2.865 µM | 1.042 µM | 102 pM | 25.7 pM | 47.1 pM | 0.55 | 1.432 µM | 0.7813 µM | 
10 | NS(=O)(=O)c1c(S(=O)(=O)N[C@H]2C[C@H](N)C2)ccc(-c2cccc3[nH]cnc23)c1-c1nn[nH]n1 [Example 200, N^1-((1r,3r)-3-aminocyclobutyl)-4-(1H-benzo[d]imidazol-4-yl)-3-(2H-tetrazol-5-yl)benzene-1,2-disulfonamide] | 1.563 µM | 3.125 µM | 1.563 µM | 276 pM | 52.8 pM | 114 pM | 1.00 | 0.7813 µM | 0.7813 µM | 
11 | NC[C@@H](CO)NS(=O)(=O)c1ccc(-c2cccc3sc(N)nc23)c(-c2nnn[nH]2)c1S(N)(=O)=O [Example 201, (S)—N^1-(1-amino-3-hydroxypropan-2-yl)-4-(2-aminobenzo[d]thiazol-4-yl)-3-(1H-tetrazol-5-yl)benzene-1,2-disulfonamide] | 1.563 µM | 3.125 µM | 1.563 µM | 109 pM | 19.9 pM |  | 0.50 | 1.563 µM | 0.7813 µM | 125 pM
12 | NC[C@H](CO)NS(=O)(=O)c1ccc(-c2cccc3sc(N)nc23)c(-c2nnn[nH]2)c1S(N)(=O)=O [Example 202, (R)—N^1-(1-amino-3-hydroxypropan-2-yl)-4-(2-aminobenzo[d]thiazol-4-yl)-3-(1H-tetrazol-5-yl)benzene-1,2-disulfonamide] | 1.563 µM | 3.125 µM | 3.125 µM | 713 pM | 124 pM |  | 1.00 | 1.563 µM | 1.563 µM | 328 pM
13 | NCCOCCNS(=O)(=O)c1ccc(-c2cccc3sc(N)nc23)c(-c2nnn[nH]2)c1S(N)(=O)=O [Example 203, 4-(2-aminobenzo[d]thiazol-4-yl)-N^1-(2-(2-aminoethoxy)ethyl)-3-(1H-tetrazol-5-yl)benzene-1,2-disulfonamide] | 1.563 µM | 3.125 µM | 3.125 µM | 199 pM | 50 pM | 185 pM | 0.50 | 1.563 µM | 0.7813 µM | 
